“Also recorded” adds a separate entry of the source.
Key:
[1] = mouse, in vivo
Experimental: Briefly, mice were anesthetized with a mixture of Ketamine/Xylazine (100 mg/kg, 10 mg/kg, respectively), after depth of anesthesia was confirmed by the cessation of reflexes, the incision area was properly shaved and sterilized with the aid of ethanol 70% swabs (Vitrex Medical A/S Herlev, DK), followed by iodine solution (Povidone Iodine 7.5% Henry Schein, Melville, NY, USA) applicated using cotton swabs. Before the onset of surgery, analgesics were applied, Lidocaine (0.05 ml, 0.2 mg/ml) was applied in the incision site and Buprenorphine (0.05 mg/kg) injected subcutaneously for post-surgical analgesia. After performing the skin incision around the occipital crest, the neck muscles were separated to reveal the CM underneath. […]
Immediately after the CM cannulation procedure, animals were moved to MRI scanner and head movement during scanning was minimized by restraining the animals on an MR-compatible stereotactic holder with ear bars. Body temperature was maintained at 37±0.5° C. with a thermostatically controlled waterbed and monitored, along with the respiratory rate by an MR compatible remote monitoring system (SA Instruments, NY, USA). […] Every 3D-CISS image was calculated as a maximum intensity projection from 4 realigned 3D-TrueFISP volumes with 4 orthogonal phase encoding directions (TR/TE 3.9/1.95 ms, Nex 2, FA 50°, FOV 19.2×12.8×12.8 mm, Matrix 192×128×128, BW 150 kHz). […]

[2] = CT live imaging of CSF tracer after intracisternal infusion, with dispersion model; assay type: in vivo, mouse
Experimental: During the CM cannulation procedure a custom-made head bar was fixed on the top of the animal skull. The head bar was designed to minimize undesired movements during the image acquisition (Yoshida et al., 2016), and fixed to an animal holder. […] Animal's respiration was monitored by using Biovet software. CT scans were performed with the Vector4CT system (MILabs, Utrecht, Netherlands) and scanning of the entire mouse head was performed in 4.56 min at an isotropic spatial resolution of 20 μm. The time series CT scanning protocol comprised one baseline scan (4.5 min) followed by intracisternal infusion of Omnipaque (350 mg I/ml, 1 μL/min, 10 μL, GE healthcare). Scans continued over 6 measurements (30 min) after intracisternal infusion of Omnipaque.
The time-intensity data was extracted using ITK snap with the ROIs described above after background subtraction and then normalized to maximal cisterna magna intensity. Dimensions of cochlear aqueduct were measured using the #X feature in ITK snap for #four animals. Distances between ROIs were calculated using their spatial coordinates.
To solve the equation (#ref), inventors implemented a simple finite difference scheme in Python (#ref) using NumPy and Scipy (#ref). Estimation of the dispersion coefficient was achieved by minimizing the L2-norm prediction error, using Scipy (#ref) E: […]

Compound	Time activity curves for tracer influx in mice lacking aqp4 [1]	Time to reach 50 max [1]	Tracer concentration in scala vestibuli or cochlear nerve (CT) ([2]; during the 30 min of scanning)	Tracer dispersal into scala tympani (CT) ([2]; intracisternal delivery, 30 min of scanning)
O=C([O-])CN1CCN(CC(=O)[O-])CCN([C@H](CO)[C@H](O)CO)CCN(CC(=O)[O-])CC1.[Gd+3] (racemic) [Gadovist, gadobutrol]	did not differ from wild type animals	significantly higher in the cochlea	–	–
CC(=O)N(CC(O)CO)c1c(I)c(C(=O)NCC(O)CO)c(I)c(C(=O)NCC(O)CO)c1I (stereo not shown) [Omnipaque]	–	–	No clear rise; also recorded: no significant tracer arrives	reaches the base and middle region of the scala tympani; also recorded: moves into the base of scala tympani

Reference: US20250049957A1, “CSF TRANSPORT PATHWAY FOR DELIVERY OF AGENTS TO INNER EAR” (University of Rochester, priority 2021, published 2025)
